From paper PMC6936879, “Inhibiting the copper efflux system in microbes as a novel approach for developing antibiotics” (PLoS ONE, 2019)

Assays:
Format in all cases: cell-based
E. coli (BL21) = experiment: Kirby-Bauer test (disc diffusion); details: 2 mm radius discs, LB petri dishes, 37 °C overnight
E. coli (BL21;DE3) [1] = experiment: E. coli viability assay (LIVE/DEAD fluorescence imaging); details: peptide 125 μM; LIVE/DEAD staining, M9 medium, confocal imaging, cell counts with ImageJ; mean ± SE, n = 3
Experimental: E. coli (BL21;DE3) were dyed using the L7007 LIVE/DEAD Bacterial Viability kit (Molecular Probes, Eugene OR, USA); microbes were grown in M9 medium. Images were acquired on a Leica SP8 confocal microscope, running LASX acquisition software. The magnification consisted of a 63 X 1.4 NA objective. Microbes were counted using ImageJ software. Error calculations were based on three repetitions, with each experiment scanned at nine different tiles—all together, 27 repetitions.
Live/dead fluorescence cell imaging experiments were used to indicate bacterial viability when incubated with the peptides. This method also helped to determine whether the decrease in the growth rate described above resulted from deceleration in E. coli growth or its substantial death. E coli were grown to the late […] phase (according to the growth rate lines; Figs B to D in S1 File) in the presence of the peptides in poor medium (M9), which mostly resembles physiological conditions.[52–54] Glucose levels in the growth media were sufficient to prevent bacterial viability loss due to lack of nutrition, yet not too high to positively affect its viability. […] However, the effect of the peptides was not as substantial as the commercially available antibiotic kanamycin. […] 5 ± 4.3% and up to 45.3 ± 4.3% reduction at a concentration of 125 μM.
Fig 4 Effect of the test peptides on E. coli viability. […]

E. coli (BL21;DE3) [2] = experiment: E. coli growth rate experiment (O.D. 600 nm) under copper stress; details: M9 medium, 37 °C, value after 14 h incubation, 5 μM Cu(II) chloride in assay (sentence does not say with or without Cu(II)), mean ± SE, n = 5
Experimental: E. coli (BL21;DE3) growth rates were evaluated in 96-well microplates: in 200 μl of a poor medium comprising M9 medium. Incubation was for 16 h at 37°C with Copper(II) chloride (Sigma-Aldrich, St. Louis, MO, USA) at a concentration of 5 μM. Absorbance at 600 nm was measured every 30 min after stirring for 5 s in a 96-well plate reader (SPL Life Sciences, Gyeonggi, Korea). The buffer background was auto-subtracted. Each experiment was repeated five times under identical conditions.
Next, E. coli were grown in M9 medium for 16 h, and their growth rate was evaluated in the absence and presence of Cu(II) in the medium. In each sample, a different peptide was introduced to the medium, with the kanamycin as a positive control. […] Growth rate values for all peptides at various concentrations after 14 h of incubation are presented in Fig 3 (the growth rate curves are presented in Figs E to F in S1 File).
Fig 3 Effect of test peptides on the E. coli growth rate. E. coli cultures were grown as described in Methods. The growth rate values after a 14 h incubation in the medium in the presence (gray lines) and absence (black lines) of Cu(II). Concentrations of the test peptides: A. 50 μM, B. 75 μM, C. 100 μM, and D. 125 μM. *p < 0.05, MEAN ± SE, n = 5, a comparison between the values in the presence and absence of Cu(II). #p < 0.05, MEAN ± SE, n = 5, in the presence of Cu(II) and comparing between values of a buffer and peptide. t-test was used for the statistic evaluation.

Substance: AKIQG [pep8]
- r, radius of bacteria killing formed over petri dishes by peptide-solution discs (E. coli (BL21); disc solution 50 µM in 0.85% NaCl): 0 mm
- r, radius of bacteria killing formed over petri dishes by peptide-solution discs (E. coli (BL21); disc solution 75 µM in 0.85% NaCl): 0.5 mm
- r, radius of bacteria killing formed over petri dishes by peptide-solution discs (E. coli (BL21); disc solution 100 µM in 0.85% NaCl): 0.5 mm
- r, radius of bacteria killing formed over petri dishes by peptide-solution discs (E. coli (BL21); disc solution 125 µM in 0.85% NaCl): 1 mm
- reduction of bacterial viability (E. coli (BL21;DE3) [1]): 41 ±5.15%
- decrease in O.D. (600 nm) (E. coli (BL21;DE3) [2]; peptide 50 μM): 45.5 ± 4.8%
- decrease in O.D. (600 nm) (E. coli (BL21;DE3) [2]; peptide 100 μM): 63.6 ± 4.0%
